# From the supplement of paper PMC10627819
# Assays:
# S. pneumoniae D39V [1] = test: fitness (endpoint OD595 vs no drug) (fraction); higher = more growth
# How it was run: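 Cultures at OD595 0.01 were dispensed into 384-well plates in TSB, LB Lennox or CY and incubated at 37 °C. Every 30 min for 14 h, OD595 was read and corrected by the first reading. Fitness is the optical density at entry into stationary phase relative to the robust mean of no-drug control wells, capped at 1.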
# B. subtilis 168 = test: Bliss interaction score (quartile over a dose matrix) (fitness difference); higher = more antagonism (negative = synergy)
# How it was run: (§1)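 Quartiles summarise the Bliss score over technical, biological and donor/recipient replicates, where the score is observed minus expected fitness under a product model. Expected fitness uses single-drug values inferred from combination data. Fitness is OD595 at entry into stationary phase over the plate's robust no-drug mean, capped at 1.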
# S. aureus DSM 20231 = test: as above
# How it was run: as §1
# S. aureus Newman = test: as above
# How it was run: as §1
# S. pneumoniae D39V [2] = test: as above
# How it was run: as §1
# 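Throughout, for Bliss interaction score (quartile over a dose matrix): first quartile when negative (synergy) and third quartile when positive (antagonism).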
structure (smiles),measurement,setting,value
O=C(O)c1cn(C2CC2)c2cc(N3CCNCC3)c(F)cc2c1=O [Ciprofloxacin] + Clc1ccc(COC(Cn2ccnc2)c2ccc(Cl)cc2Cl)c(Cl)c1 [Miconazole],fitness,"S. pneumoniae D39V [1]; first compound 0.125 µg/mL, partner 1.073 µg/mL",0.987
same,fitness,"S. pneumoniae D39V [1]; first compound 0.125 µg/mL, partner 1.25 µg/mL",0.939
same,fitness,"S. pneumoniae D39V [1]; first compound 0.125 µg/mL, partner 2.145 µg/mL",0.966
same,fitness,"S. pneumoniae D39V [1]; first compound 0.125 µg/mL, partner 2.5 µg/mL",0.925
same,fitness,"S. pneumoniae D39V [1]; first compound 0.125 µg/mL, partner 4.29 µg/mL",0.926
same,fitness,"S. pneumoniae D39V [1]; first compound 0.125 µg/mL, partner 5 µg/mL",0.908
same,fitness,"S. pneumoniae D39V [1]; first compound 0.25 µg/mL, partner 1.073 µg/mL",0.964
same,fitness,"S. pneumoniae D39V [1]; first compound 0.25 µg/mL, partner 1.25 µg/mL, one replicate",0.821
same,fitness,"S. pneumoniae D39V [1]; first compound 0.25 µg/mL, partner 2.145 µg/mL",0.965
same,fitness,"S. pneumoniae D39V [1]; first compound 0.25 µg/mL, partner 2.5 µg/mL, one replicate",0.697
same,fitness,"S. pneumoniae D39V [1]; first compound 0.25 µg/mL, partner 4.29 µg/mL",0.864
same,fitness,"S. pneumoniae D39V [1]; first compound 0.25 µg/mL, partner 5 µg/mL, one replicate",0.721
same,fitness,"S. pneumoniae D39V [1]; first compound 0.5 µg/mL, partner 1.073 µg/mL",0.761
same,fitness,"S. pneumoniae D39V [1]; first compound 0.5 µg/mL, partner 1.25 µg/mL",0.679
same,fitness,"S. pneumoniae D39V [1]; first compound 0.5 µg/mL, partner 2.145 µg/mL",0.76
same,fitness,"S. pneumoniae D39V [1]; first compound 0.5 µg/mL, partner 4.29 µg/mL",0.821
same,fitness,"S. pneumoniae D39V [1]; first compound 0.5 µg/mL, partner 5 µg/mL",0.646
same,Bliss interaction score,B. subtilis 168,-0.0762
same,Bliss interaction score,S. aureus DSM 20231,0.0295
same,Bliss interaction score,S. aureus Newman,0.0815
same,Bliss interaction score,S. pneumoniae D39V [2],0.0741
CO/N=C(\C(=O)N[C@@H]1C(=O)N2C(C(=O)O)=C(COC(C)=O)CS[C@H]12)c1csc(N)n1 [Cefotaxime] + C[C@@H](O)[C@H]1C(=O)N2C(C(=O)O)=C(SCCNC=N)C[C@H]12 [Imipenem],fitness,"S. pneumoniae D39V [1]; first compound 0.0018 µg/mL, partner 0.005 µg/mL",0.966
same,fitness,"S. pneumoniae D39V [1]; first compound 0.0018 µg/mL, partner 0.0065 µg/mL",0.976
same,fitness,"S. pneumoniae D39V [1]; first compound 0.0018 µg/mL, partner 0.01 µg/mL",0.937
same,fitness,"S. pneumoniae D39V [1]; first compound 0.0018 µg/mL, partner 0.013 µg/mL",≥ 1
same,fitness,"S. pneumoniae D39V [1]; first compound 0.0018 µg/mL, partner 0.02 µg/mL",0.932
same,fitness,"S. pneumoniae D39V [1]; first compound 0.0018 µg/mL, partner 0.026 µg/mL",0.973
same,fitness,"S. pneumoniae D39V [1]; first compound 0.0035 µg/mL, partner 0.005 µg/mL",0.942
same,fitness,"S. pneumoniae D39V [1]; first compound 0.0035 µg/mL, partner 0.0065 µg/mL",0.99
same,fitness,"S. pneumoniae D39V [1]; first compound 0.0035 µg/mL, partner 0.01 µg/mL",0.941
same,fitness,"S. pneumoniae D39V [1]; first compound 0.0035 µg/mL, partner 0.013 µg/mL",≥ 1
same,fitness,"S. pneumoniae D39V [1]; first compound 0.0035 µg/mL, partner 0.02 µg/mL",0.947
same,fitness,"S. pneumoniae D39V [1]; first compound 0.0035 µg/mL, partner 0.026 µg/mL",0.942
same,fitness,"S. pneumoniae D39V [1]; first compound 0.007 µg/mL, partner 0.005 µg/mL",0.934
same,fitness,"S. pneumoniae D39V [1]; first compound 0.007 µg/mL, partner 0.0065 µg/mL",0.634
same,fitness,"S. pneumoniae D39V [1]; first compound 0.007 µg/mL, partner 0.01 µg/mL",0.882
same,fitness,"S. pneumoniae D39V [1]; first compound 0.007 µg/mL, partner 0.013 µg/mL",0.708
same,fitness,"S. pneumoniae D39V [1]; first compound 0.007 µg/mL, partner 0.02 µg/mL",0.87
same,fitness,"S. pneumoniae D39V [1]; first compound 0.007 µg/mL, partner 0.026 µg/mL",0.548
same,Bliss interaction score,B. subtilis 168,-0.116
same,Bliss interaction score,S. aureus DSM 20231,-0.0289
same,Bliss interaction score,S. aureus Newman,0.0648
same,Bliss interaction score,S. pneumoniae D39V [2],0.0762
COc1cccc2c1C(=O)c1c(O)c3c(c(O)c1C2=O)C[C@@](O)(C(=O)CO)C[C@@H]3O[C@H]1C[C@H](N)[C@H](O)[C@H](C)O1 [Doxorubicin] + O=C1CN(/N=C/c2ccc([N+](=O)[O-])o2)C(=O)N1 [Nitrofurantoin],fitness,"S. pneumoniae D39V [1]; first compound 0.25 µg/mL, partner 1.285 µg/mL",0.935
same,fitness,"S. pneumoniae D39V [1]; first compound 0.25 µg/mL, partner 2 µg/mL",0.918
same,fitness,"S. pneumoniae D39V [1]; first compound 0.25 µg/mL, partner 2.57 µg/mL",0.91
same,fitness,"S. pneumoniae D39V [1]; first compound 0.25 µg/mL, partner 4 µg/mL",0.857
same,fitness,"S. pneumoniae D39V [1]; first compound 0.25 µg/mL, partner 5.14 µg/mL, one replicate",0.822
same,fitness,"S. pneumoniae D39V [1]; first compound 0.25 µg/mL, partner 8 µg/mL",0.465
same,fitness,"S. pneumoniae D39V [1]; first compound 0.5 µg/mL, partner 1.285 µg/mL",0.925
same,fitness,"S. pneumoniae D39V [1]; first compound 0.5 µg/mL, partner 2 µg/mL",0.946
same,fitness,"S. pneumoniae D39V [1]; first compound 0.5 µg/mL, partner 2.57 µg/mL",0.94
same,fitness,"S. pneumoniae D39V [1]; first compound 0.5 µg/mL, partner 4 µg/mL",0.795
same,fitness,"S. pneumoniae D39V [1]; first compound 0.5 µg/mL, partner 5.14 µg/mL, one replicate",0.858
same,fitness,"S. pneumoniae D39V [1]; first compound 0.5 µg/mL, partner 8 µg/mL",0.436
same,fitness,"S. pneumoniae D39V [1]; first compound 1 µg/mL, partner 1.285 µg/mL",0.825
same,fitness,"S. pneumoniae D39V [1]; first compound 1 µg/mL, partner 2 µg/mL",0.814
same,fitness,"S. pneumoniae D39V [1]; first compound 1 µg/mL, partner 2.57 µg/mL",0.809
same,fitness,"S. pneumoniae D39V [1]; first compound 1 µg/mL, partner 4 µg/mL",0.721
same,fitness,"S. pneumoniae D39V [1]; first compound 1 µg/mL, partner 5.14 µg/mL, one replicate",0.695
same,fitness,"S. pneumoniae D39V [1]; first compound 1 µg/mL, partner 8 µg/mL",0.405
same,Bliss interaction score,B. subtilis 168,-0.221
same,Bliss interaction score,S. aureus DSM 20231,-0.0576
same,Bliss interaction score,S. aureus Newman,-0.0388
same,Bliss interaction score,S. pneumoniae D39V [2],0.0747
CO/N=C(\C(=O)N[C@@H]1C(=O)N2C(C(=O)O)=C(COC(C)=O)CS[C@H]12)c1csc(N)n1 [Cefotaxime] + O=C1CN(/N=C/c2ccc([N+](=O)[O-])o2)C(=O)N1 [Nitrofurantoin],fitness,"S. pneumoniae D39V [1]; first compound 0.0018 µg/mL, partner 1.285 µg/mL",0.974
same,fitness,"S. pneumoniae D39V [1]; first compound 0.0018 µg/mL, partner 2 µg/mL",0.94
same,fitness,"S. pneumoniae D39V [1]; first compound 0.0018 µg/mL, partner 2.57 µg/mL",0.959
same,fitness,"S. pneumoniae D39V [1]; first compound 0.0018 µg/mL, partner 4 µg/mL",0.944
same,fitness,"S. pneumoniae D39V [1]; first compound 0.0018 µg/mL, partner 5.14 µg/mL, one replicate",0.981
same,fitness,"S. pneumoniae D39V [1]; first compound 0.0018 µg/mL, partner 8 µg/mL",0.873
same,fitness,"S. pneumoniae D39V [1]; first compound 0.0035 µg/mL, partner 1.285 µg/mL",0.963
same,fitness,"S. pneumoniae D39V [1]; first compound 0.0035 µg/mL, partner 2 µg/mL",0.92
same,fitness,"S. pneumoniae D39V [1]; first compound 0.0035 µg/mL, partner 2.57 µg/mL",0.965
same,fitness,"S. pneumoniae D39V [1]; first compound 0.0035 µg/mL, partner 4 µg/mL",0.916
same,fitness,"S. pneumoniae D39V [1]; first compound 0.0035 µg/mL, partner 5.14 µg/mL, one replicate",0.945
same,fitness,"S. pneumoniae D39V [1]; first compound 0.0035 µg/mL, partner 8 µg/mL",0.822
same,fitness,"S. pneumoniae D39V [1]; first compound 0.007 µg/mL, partner 1.285 µg/mL",0.923
same,fitness,"S. pneumoniae D39V [1]; first compound 0.007 µg/mL, partner 2 µg/mL",0.844
same,fitness,"S. pneumoniae D39V [1]; first compound 0.007 µg/mL, partner 2.57 µg/mL",0.923
same,fitness,"S. pneumoniae D39V [1]; first compound 0.007 µg/mL, partner 4 µg/mL",0.821
same,fitness,"S. pneumoniae D39V [1]; first compound 0.007 µg/mL, partner 5.14 µg/mL, one replicate",0.894
same,fitness,"S. pneumoniae D39V [1]; first compound 0.007 µg/mL, partner 8 µg/mL",0.733
same,Bliss interaction score,B. subtilis 168,-0.157
same,Bliss interaction score,S. aureus DSM 20231,0.0224
same,Bliss interaction score,S. aureus Newman,0.0592
same,Bliss interaction score,S. pneumoniae D39V [2],0.142
